Results taken from PubChem BioAssay AID463174 (Southern Research Specialized Biocontainment Screening …, 2010).
Calls of active or inactive are those of the source. The rule behind the calls is not given here.

Test system: not listed separately
Experiment: late-stage follow-up, counter-screen for PhoP regulon inhibitor project, purified and synthesized compounds, set 5 (AID 463174)
Conditions: S. Typhi promoter-GFP counter-screen, fluorescence, 4 h; at 150 µM (top of the series)

SMILES | inhibition
O=C1C2=C(Nc3ccccc3SC2c2cccnc2)c2ccccc21 (stereo unspecified) | -32.9% (inactive)
Clc1ccc(C2Sc3ccccc3N=C3c4ccccc4CC32)cc1 (stereo unspecified) | -48.2% (inactive)
Cc1ccc(C2Sc3ccccc3N=C3c4ccccc4CC32)cc1 (stereo unspecified) | -45.3% (inactive)
COc1cccc(NC(=O)N2CCCN(Cc3ccccc3F)C2)c1 | -3.56% (inactive)
O=C1C2=C(Nc3ccccc3SC2c2cccc(Br)c2)c2ccccc21 (stereo unspecified) | -12.6% (inactive)

Test system: S. Typhi promoter-GFP counter-screen, fluorescence, 4 h
Experiment: as above
Conditions: not given

SMILES | IC50
O=C1C2=C(Nc3ccccc3SC2c2ccc(Cl)cc2)c2ccccc21 (stereo unspecified) | 89.6 µM
